The values below come from US7427599B2, “Biologically active peptide comprising Tyrosyl-seryl-valine(YSV)” (CMS Peptides Patent Holding Company Limited, priority 2003, dated 2008).

One assay relates to melanoma B16. Put plainly: Growth of C57BL/6 mice-transplanted melanoma B16. The assay is classed as in vivo. Conditions: 20 mg/kg/day intraperitoneal, 20 consecutive days. Here is the method:
B16 cells were maintained in RPMI-1640 medium with 10% FBS at 37° C., 5% CO2. Mouse B16 melanoma culture at log phase was adjusted to 2.5×10^6/ml with Hank's solution. 0.2 ml of this was subcutaneously injected to the right axilla of healthy C57 BL/6 mice to form the melanoma mice model. […] From the next day after the tumor implantation, the general conditions of the mice and the growth of the tumor were observed daily. On the next day after the last test substance administration, the tumors were extirpated and the weights of tumor were measured. […] The results were presented as arithmetic mean ±SD. Statistical analysis was performed using the ANOVA test of the SPSS software.

Assay [1] relates to A549 human pulmonary carcinoma. Put plainly: A549 human pulmonary carcinoma xenograft in nude mice. The assay is classed as in vivo, BALB/c (nu/nu) athymic nude mice. Conditions: 20 mg/kg/day i.p., 40 days. How it is done: Healthy BALB/c (nu/nu) athymic nude mice (SPF, 4-5 weeks old, weighting 18-22 g) were purchased from Shanghai Tumor Academe of China Medical Academy of Science. In the first experiment, female was used. In the second experiment, male was used.
Select A549 human pulmonary carcinoma xenografts of diameter longer than 1 cm with good growth on nude mice. Aseptically excise the tumor mass, cut into pieces of 2-4 mm^3 and submerged in RPMI1640. Pulmonary carcinoma nude mice model was prepared by transplanting the tumor mass hypodermally to the back of healthy nude mice near to the neck via an incision at the ventral thorax.
The nude mice bearing A549 xenografts were randomly divided into groups of: saline control (0.2 ml/day), YSV groups of different dosages, and Cy control (0.2 mg/kg/day). The test substances were dissolved in 0.2 ml saline and administered intraperitoneally to the mice starting from the day after the transplantation, once per day for 40 consecutive days.
The general condition of the mice was observed daily. The mice were weighed every 3-4 days and the volume of the tumor was measured:
V=(⅙)πXYZ, where X, Y, and Z were the diameters of the tumor on the 3 planes.
The day after the last injection, the tumors were excised, weighted, and the volume measured. The tumors were examined for signs of necrosis. Tumor inhibition index=(average tumor weight of saline group−average tumor weight of test group)/average tumor weight of saline group×100%)
Statistical analysis was performed with SPSS software using one-way ANOVA analysis.
(In general: In xenograft studies the graft and the host belong to different species.)

Marks after values point to notes of the source that are not given here.

Take `O=P1(N(CCCl)CCCl)NCCCO1` (centres unmarked) [Cyclophosphamide, reference compound]: the “The Inhibition rate (%)” value with melanoma B16 was found to be 81.5%. Also, the “Tumor weight” value in the assay on melanoma B16 (saline 2.64 ± 0.68) came out at 0.49 ± 0.68 g; in assay [1] (experiment 1, female nude mice, saline 2.49 ± 1.02) it was 1.50 ± 0.75 g; in assay [1] (experiment 2, male nude mice, saline 1.51 ± 0.79), 0.73 ± 0.42 g. For the same compound, the “Tumor inhibition index (%)” value came out at 39.8% in assay [1] (experiment 1, female nude mice) and 51.9% in assay [1] (experiment 2, male nude mice). For the same compound, the “Tumor volume (cm^3)” value is 1.02 ± 0.47* cm^3 in assay [1] (experiment 1, female nude mice, saline 1.87 ± 1.10) and 0.49 ± 0.34* cm^3 in assay [1] (experiment 2, male nude mice, saline 1.34 ± 0.69).
